Article PMC4551668 (Microbial Cell Factories, 2015)

Columns and labels:
[1] = target: MPH (Ochr-MPH) (Ochrobactrum sp. M231, UniProt B2Z3X1, K284Q/K285R); conditions: CHBD-QR; same
Source text: (§1) steady-state kinetics, purified enzyme, standard MPH assay on MPH (Ochr-MPH)

[2] = target: MPH (Ochr-MPH) (Ochrobactrum sp. M231, UniProt B2Z3X1); conditions: CHBD-MPH, tag excised by Kex2; substrate not named, taken from enzyme name and text; assay conditions only by reference
Source text: as §1

[3] = target: MPH (Ochr-MPH) (Ochrobactrum sp. M231, UniProt B2Z3X1, K277D/K284Q/K285R); conditions: CHBD-DQR; same
MPH (Ochr-MPH) (Ochrobactrum sp. M231, UniProt B2Z3X1, K277D/K284Q/K285R), sequence (B2Z3X1 entry or part of it K277D/K284Q/K285R): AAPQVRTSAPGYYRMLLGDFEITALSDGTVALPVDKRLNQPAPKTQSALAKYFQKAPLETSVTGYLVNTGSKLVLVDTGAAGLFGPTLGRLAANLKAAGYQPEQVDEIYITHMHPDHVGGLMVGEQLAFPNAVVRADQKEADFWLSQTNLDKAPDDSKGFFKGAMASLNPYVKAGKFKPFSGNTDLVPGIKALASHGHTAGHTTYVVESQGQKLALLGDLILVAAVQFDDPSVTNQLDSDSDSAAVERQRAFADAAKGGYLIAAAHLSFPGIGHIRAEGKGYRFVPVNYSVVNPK
Source text: as §1

MPH (Ochr-MPH) (Ochrobactrum sp. M231, UniProt B2Z3X1), sequence (B2Z3X1 entry or part of it): as the sequence (B2Z3X1 entry or part of it K277D/K284Q/K285R) above, with D242K, Q249K, R250K counted along it
MPH (Ochr-MPH) (Ochrobactrum sp. M231, UniProt B2Z3X1, K284Q/K285R), sequence (B2Z3X1 entry or part of it K284Q/K285R): as the sequence (B2Z3X1 entry or part of it K277D/K284Q/K285R) above, with D242K counted along it

COP(=S)(OC)Oc1ccc([N+](=O)[O-])cc1 [methyl parathion]
Km [1]: 119 ± 8.26 µM
Km [2]: 86.9 ± 5.85 µM
Km [3]: 168 ± 7.57 µM
